Drawing on US11559538B2, “Substituted 1,2-oxaborolan-2-ols as PDE4 inhibitors” (Pfizer Inc., priority 2018, dated 2023), this text covers IC50 for 27 compounds.

For orientation: IC50 means the midpoint of a concentration-inhibition curve.

Like-named read-outs stand apart in the source and are kept apart here.

What all share (type): cell-based
The subject of assay [1] is IFNγ. The experiment in a line: Cytokine assay: IFNγ release from PHA-L stimulated human PBMCs. How it is done: (§1) Cytokine inhibitory activity is determined by measuring the effect of test agent on the release of the cytokines IL-4, IL-13 and IFNγ from human peripheral blood mononuclear cells (PBMCs) stimulated with the T-cell mitogen phytohemagglutinin-L (PHA-L). At the time of assay, human PBMCs (Astarte Biologics) are removed from cryopreservation, thawed quickly at 37° C., diluted in assay medium (RPMI-Gibco 1640 medium, 10% heat inactivated fetal bovine serum (HIFBS), 2 mM glutamine and 10 mM HEPES pH 7.4) and then centrifuged at 250×g for 5 minutes. The resulting cell pellet is re-suspended in assay medium to a concentration of approximately 5×10^6 cells/mL and 50 μL of this cell suspension (approximately 250,000 cells) is added to each well of a 384-well cell culture microtiter plate (Perkin Elmer). Varying concentrations of test compound are then diluted in assay medium and added to the assay plate wells in a volume of 25 μL. After −10 minutes at room temperature (21° C.) the cells are stimulated by the addition of 25 μL of PHA-L (14 μg/mL; Millipore) and the assay plate is placed in an incubator at 37° C. in a humidified environment in 5% carbon dioxide. The final assay conditions are approximately 250,000 human PBMCs per well in assay medium containing 3.5 μg/mL PHA-L and the indicated final concentration of test compound (approximately 10 μM to […] by 4-fold dilution). The final concentration of DMSO in the assay is approximately 0.25%. After 48 hours, the assay plate is removed from the incubator and centrifuged at 250×g for 5 minutes. A portion of the resulting cell supernatant is then used to determine the amount of IL-4, IL-13 and IFNγ in each well. Cytokine measurements are made using human IL-4, IL-13 or IFNγ HTRF assay kits (CisBio) following the manufacturer's assay protocol. The concentrations and resulting effect values for tested compounds are plotted and the concentration of compound required for 50% effect (IC50) is determined with a four-parameter logistic dose response equation (E-WorkBook, ID Business Solutions Ltd.) and shown in Table 17.

Assay [2] concerns IL-13. The experiment in a line: Cytokine assay: IL-13 release from PHA-L stimulated human PBMCs. The following applies: read-out: IL13 IC50. How it is done:
as §1

Assay [3] relates to IL-4. The experiment in a line: Cytokine assay: IL-4 release from PHA-L stimulated human PBMCs. The note with it: read-out: IL4 IC50. The procedure:
as §1

Take `CCOc1cc(-c2cncc(C3COB(O)C3)c2)c(C)cc1OC` (single isomer, unassigned) [Example 70, 4-(5-(5-ethoxy-4-methoxy-2-methylphenyl)pyridin-3-yl)-1,2-oxaborolan-2-ol]: the results for the IC50 in assay [1], in assay [2] and in assay [3] were 2.85 nM, 890 nM and 4.31 nM, respectively.
With `CCOc1cc(-c2cncc(C3COB(O)C3)c2)c(C)cc1OC` (single isomer, unassigned) [Example 71, 4-(5-(5-ethoxy-4-methoxy-2-methylphenyl)pyridin-3-yl)-1,2-oxaborolan-2-ol], the figures for the IC50 in assay [1], in assay [2] and in assay [3] were 18.8 nM, 1910 nM and 42 nM, respectively.
On to `CCOc1ccc(-c2cncc(C3COB(O)C3)c2)cc1OCC` (single isomer, unassigned) [Example 97, 4-(5-(3,4-diethoxyphenyl)pyridin-3-yl)-1,2-oxaborolan-2-ol], for which the IC50 in assay [1] (Homo sapiens, PBMC) worked out at 2.81 nM; in assay [2], 465 nM; in assay [3] it was 34 nM.
Turning to `CSc1ccc(-c2cncc(C3COB(O)C3)c2)cc1OC1CCCC1` (single isomer, unassigned) [Example 100, 4-(5-(3-(cyclopentyloxy)-4-(methylthio)phenyl)pyridin-3-yl)-1,2-oxaborolan-2-ol], the IC50 in assay [1] was 4.32 nM; in assay [2] it was 472 nM; in assay [3] (Homo sapiens, PBMC), 32.7 nM.
Turning to `CSc1ccc(-c2cncc(C3COB(O)C3)c2)cc1OC1CCCC1` (single isomer, unassigned) [Example 101, 4-(5-(3-(cyclopentyloxy)-4-(methylthio)phenyl)pyridin-3-yl)-1,2-oxaborolan-2-ol], the IC50 in assay [1] was determined as 13.3 nM; in assay [2], 2650 nM; in assay [3], 26 nM.
`CCCOc1cc(-c2nc(COC)cc(C3COB(O)C3)n2)ccc1OC` (single isomer, unassigned) [Example 103, 4-(2-(4-methoxy-3-propoxyphenyl)-6-(methoxymethyl)pyrimidin-4-yl)-1,2-oxaborolan-2-ol]: the IC50 in assay [1] (Homo sapiens, PBMC) stood at 0.76 nM; in assay [2] (Homo sapiens, PBMC), 487 nM; in assay [3] (Homo sapiens, PBMC), 0.83 nM.
Consider `CCCOc1cc(-c2cncc(C3COB(O)C3)c2)ccc1SC` (single isomer, unassigned) [Example 114, 4-(5-(4-(methylthio)-3-propoxyphenyl)pyridin-3-yl)-1,2-oxaborolan-2-ol], for which the IC50 in assay [1] (Homo sapiens, PBMC) came to 21.5 nM; in assay [2] (Homo sapiens, PBMC) it was 2910 nM; in assay [3] (Homo sapiens, PBMC), 32.7 nM.
As for `CCCOc1cc(-c2cc(C3COB(O)C3)cnn2)ccc1OC` (single isomer, unassigned) [Example 136, 4-(6-(4-methoxy-3-propoxyphenyl)pyridazin-4-yl)-1,2-oxaborolan-2-ol], the IC50 stood at 2.43 nM in assay [1] (Homo sapiens, PBMC); 670 nM in assay [2] (Homo sapiens, PBMC); 11.7 nM in assay [3] (Homo sapiens, PBMC).
Taken in the same sequence, the figures for `CCOc1cc(-c2cncc(C3COB(O)C3)c2)cc(Cl)c1OC` (stereo not drawn) [Example 45, 4-(5-(3-chloro-5-ethoxy-4-methoxyphenyl)pyridin-3-yl)-1,2-oxaborolan-2-ol] were 3.88 nM, 450 nM and 12.4 nM.
Consider `CCCOc1cc(-c2cncc(C3COB(O)C3)c2)c(F)cc1OC` (stereo not drawn) [Example 49, 4-(5-(2-fluoro-4-methoxy-5-propoxyphenyl)pyridin-3-yl)-1,2-oxaborolan-2-ol], for which the IC50 came out at 3.21 nM in assay [1] (Homo sapiens, PBMC); 166 nM in assay [2] (Homo sapiens, PBMC); 4.4 nM in assay [3] (Homo sapiens, PBMC).
The matching figures for `CCCOc1cc(-c2cncc(C3COB(O)C3)c2)ccc1OC(F)F` (stereo not drawn) [Example 50, 4-(5-(4-(difluoromethoxy)-3-propoxyphenyl)pyridin-3-yl)-1,2-oxaborolan-2-ol]: 1.52 nM, 234 nM and 1.04 nM.
Take `CCCOc1cc(-c2cc(CO)cc(C3COB(O)C3)n2)ccc1OC` (stereo not drawn) [Example 64, 4-(4-(hydroxymethyl)-6-(4-methoxy-3-propoxphenyl)pyridin-2-yl)-1,2-oxaborolan-2-ol]: the IC50 in assay [1] (Homo sapiens, PBMC) turned out to be 4.44 nM; in assay [2] (Homo sapiens, PBMC), 325 nM; in assay [3] (Homo sapiens, PBMC) it was 8.04 nM.
Taken in the same sequence, the figures for `COc1ccc(-c2cccc(C3COB(O)C3)n2)cc1OC1CCCC1` (stereo not drawn) [Example 65, 4-(6-(3-(cyclopentyloxy)-4-methoxyphenyl)pyridin-2-yl)-1,2-oxaborolan-2-ol] were 5.34 nM, 814 nM and 186 nM.
For `CCCOc1c(OC)ccc(-c2cncc(C3COB(O)C3)c2)c1F` (stereo not drawn) [Example 82, 4-(5-(2-fluoro-4-methoxy-3-propoxphenyl)pyridin-3-yl)-1,2-oxaborolan-2-ol], the IC50 in assay [1] was 1.07 nM; in assay [2] it was 426 nM; in assay [3], 7.14 nM.
Regarding `CCCOc1cc(-c2nc(C(C)O)cc(C3COB(O)C3)n2)ccc1OC` (stereo not drawn) [Example 83, 4-(6-(1-hydroxyethyl)-2-(4-methoxy-3-propoxyphenyl)pyrimidin-4-yl)-1,2-oxaborolan-2-ol], the IC50 in assay [1] (Homo sapiens, PBMC) was 4.73 nM; in assay [2] (Homo sapiens, PBMC) it was 439 nM; in assay [3] (Homo sapiens, PBMC) it was 9.42 nM.
The matching figures for `CCCOc1cc(-c2nc(COC)cc(C3COB(O)C3)n2)ccc1OC` (stereo not drawn) [Example 102, 4-(2-(4-methoxy-3-propoxyphenyl)-6-(methoxymethyl)pyrimidin-4-yl)-1,2-oxaborolan-2-ol]: 3.01 nM, 1240 nM and 2.07 nM.
Take `COc1ccc(-c2cncc(C3COB(O)C3)c2)c(F)c1OC` (stereo not drawn) [Example 108, 4-(5-(2-fluoro-3,4-dimethoxyphenyl)pyridin-3-yl)-1,2-oxaborolan-2-ol]: the figures for the 50% inhibitory concentration (IC50) in assay [1], in assay [2] and in assay [3] were 4.35 nM, 493 nM and 22.1 nM, respectively.
For `CCCOc1cc(-c2cncc(C3COB(O)C3)c2)ccc1SC` (stereo not drawn) [Example 113, 4-(5-(4-(methylthio)-3-propoxyphenyl)pyridin-3-yl)-1,2-oxaborolan-2-ol], the results for the IC50 in assay [1], in assay [2] and in assay [3] were 3.81 nM, 497 nM and 36.1 nM, respectively.
Take `CCCOc1c(OC)ccc(-c2cccc(C3COB(O)C3)c2)c1F` (stereo not drawn) [Example 116, 4-(2′-fluoro-4′-methoxy-3′-propoxy-[1,1′-biphenyl]-3-yl)-1,2-oxaborolan-2-ol]: the 50% inhibitory concentration (IC50) in assay [1] (Homo sapiens, PBMC) was found to be 2.45 nM; in assay [2] (Homo sapiens, PBMC), 508 nM; in assay [3] (Homo sapiens, PBMC), 42 nM.
With `COc1cnc(-c2cccc(C3COB(O)C3)c2)nc1OC` (stereo not drawn) [Example 122, 4-(3-(4,5-dimethoxypyrimidin-2-yl)phenyl)-1,2-oxaborolan-2-ol], the IC50 in assay [1] (Homo sapiens, PBMC) was determined as 7.49 nM; in assay [2] (Homo sapiens, PBMC), 567 nM; in assay [3] (Homo sapiens, PBMC) it was 362 nM.
Taken in the same sequence, the figures for `CCCOc1cc(-c2cccc(C3COB(O)C3)n2)ccc1OC` (stereo not drawn) [Example 127, 4-(6-(4-methoxy-3-propoxyphenyl)pyridin-2-yl)-1,2-oxaborolan-2-ol] were 2.84 nM, 585 nM and 62.6 nM.
Consider `COc1ccc(-c2nc(C3COB(O)C3)ccc2F)cc1OC1CCCC1` (stereo not drawn) [Example 131, 4-(6-(3-(cyclopentyloxy)-4-methoxyphenyl)-5-fluoropyridin-2-yl)-1,2-oxaborolan-2-ol], for which the IC50 in assay [1] (Homo sapiens, PBMC) is 5.7 nM; in assay [2] (Homo sapiens, PBMC), 591 nM; in assay [3] (Homo sapiens, PBMC), 11.6 nM.
As for `CCCOc1cc(-c2cc(C3COB(O)C3)cnn2)ccc1OC` (stereo not drawn) [Example 137], the IC50 came to 2.52 nM in assay [1] (Homo sapiens, PBMC); 1090 nM in assay [2] (Homo sapiens, PBMC); 37.2 nM in assay [3] (Homo sapiens, PBMC).
With `CCOc1cc(-c2cncc(C3COB(O)C3)c2)ccc1SC` (stereo not drawn) [Example 144, 4-(5-(3-ethoxy-4-(methylthio)phenyl)pyridin-3-yl)-1,2-oxaborolan-2-ol], the 50% inhibitory concentration (IC50) stood at 5.02 nM in assay [1] (Homo sapiens, PBMC); 706 nM in assay [2] (Homo sapiens, PBMC); 83.9 nM in assay [3] (Homo sapiens, PBMC).
Regarding `COc1ccc(-c2cccc(C3COB(O)C3)c2)c(C#N)c1OC` (stereo not drawn) [Example 177, 3′-(2-hydroxy-1,2-oxaborolan-4-yl)-3,4-dimethoxy-[1,1′-biphenyl]-2-carbonitrile], the IC50 in assay [1] (Homo sapiens, PBMC) turned out to be 8.49 nM; in assay [2] (Homo sapiens, PBMC) it was 1220 nM; in assay [3] (Homo sapiens, PBMC), 155 nM.
Taken in the same sequence, the figures for `COc1ccc(-c2cccc(C3COB(O)C3)c2)cc1OCC(C)C` (stereo not drawn) [Example 183, 4-(3′-isobutoxy-4′-methoxy-[1,1′-biphenyl]-3-yl)-1,2-oxaborolan-2-ol] were 6.4 nM, 1370 nM and 102 nM.
Taken in the same sequence, the figures for `CCCOc1cc(-c2nc(OCCO)cc(C3COB(O)C3)n2)ccc1OC` (stereo not drawn) [Example 195, 4-(6-(2-hydroxyethoxy)-2-(4-methoxy-3-propoxyphenyl)pyrimidin-4-yl)-1,2-oxaborolan-2-ol] were 0.33 nM, 2190 nM and 0.36 nM.
